# According to patent US20220047569A1, “METHOD AND COMPOUND FOR USE, IN TREATING AND/OR PREVENTING NETOSIS” (Jubilant EpiPad LLC, priority 2020, published 2022):
# pIC50: −log10 of the molar value. Where a name gives a salt, the structure may show the parent alone.
# System: Histone H3 Citrullination in Neutrophils
# Test: Citrullination ELISA (Citrullinated Histone H3) in calcium ionophore stimulated neutrophils
# Assay type: cell-based
# Details: Neutrophil; human neutrophils, 25 μM calcium ionophore, CitH3 ELISA
# Procedure: Neutrophils were isolated according to the EasySep Direct Human Neutrophil Isolation Kit. In short, 50 mL of blood sample was drawn in a vacutainer containing K2EDTA from a healthy donor. To the whole blood, the isolation cocktail of 50 μL/mL was added. Then, in the next step 50 μL/mL of RapidSpheres™ was added to the sample. The sample was mixed evenly with the pipette and incubated for 10 minutes at room temperature. After incubation, PBS containing 1 mM EDTA was added at the ratio of 1:1 to the blood. Then the sample tube was incubated for 10 minutes. The enriched cell suspension was transferred into a new tube and RapidSpheres™ were added at 50 μL/mL to this suspension, mixed and incubated for 10 minutes at room temperature. At this step, the enriched cell suspension was carefully collected as a clear fraction into a fresh tube. Then, previous tube was replaced with the fresh tube containing enriched cell suspension. After the final separation, the clear solution of enriched cell suspension was carefully transferred to fresh tube which was ready to use for the experiment. These cells were then subjected to wash twice with plain RPMI 1640 media without Fetal Bovine Serum (FBS) and centrifuged at 1500 rpm for 5 minutes at room temperature. Cell counts were performed on each sample by Invitrogen cell counter. After the cell count, cell density was adjusted according to the experiment and re-suspended in complete RPMI media containing RPMI1640, 2% BSA and 1 mM CaCl2.
# Freshly isolated neutrophils from human donor were seeded at a density of 0.5×10^6 cells in 400 μL cell suspension/well in a 24-well plate and cells were pre-incubated with the compound for 30 minutes by adding 50 μL of the 10× concentration to achieve the final 1× concentration of compound (10 μM, 1 μM and 0.1 μM). 1% DMSO was added in control wells. Then, the cells were stimulated in the presence and absence of calcium ionophore by adding 50 μL/well to achieve the final concentration of 25 μM. Upon incubation for 30 minutes with calcium ionophore, S7 nuclease was added to the wells and incubated for 10 minutes to disrupt NET DNA. Following incubation, 10 μL of 1 mM EDTA was added to inactivate nuclease. Cells were scrapped gently and transferred to the tubes, followed by centrifugation at 1500 rpm for 5 minutes. After centrifugation, supernatant was discarded, and 200 μL of lysis buffer containing PBS and 1× Protease inhibitor was added to the tubes. The obtained lysis was then subjected to mechanical shearing using Geno grinder by spin the plate at 2500 rpm for 10 minutes, followed by collection of supernatant and stored at −20° C. or immediately used for ELISA.
# ELISA was performed as per Citrullinated Histone H3 ELISA Kit. All the buffer components from the kit were dissolved according to the manufactures protocol. ELISA Buffer Concentrate (10×) (Item No. 400060) and Wash Buffer Concentrate (400×) (Item No. 400060) along with polysorbate 20 (2000×) (Item No. 400035) was diluted to 1× with milliQ water. The standard for use in the ELISA was prepared as follows: • Obtain eight clean test tubes and label them, #1 through #8. Aliquot 4.9 mL of ELISA Buffer into tube #1. • Aliquot 500 μL of ELISA Buffer into the tubes #2-8. […] This tube is considered as blank, the lowest point on the standard curve.
# 100 μL of standards or diluted sample was added to the appropriate wells on the 96-well plate. Plates were covered with 96-well cover sheet and incubated for two hours at room temperature on an orbital shaker. The samples and standard were removed from the wells and washed four times with Wash Buffer. After the last wash, Anti-Histone H3 HRP Conjugate (Item No. 501441) (10×) stock solution was diluted in 1×ELISA buffer and 100 μL of the HRP Conjugate working solution was added to each well of the plate and incubated for one hour at room temperature on an orbital shaker. […]
row,SMILES,pIC50
1,"COCCn1c(-c2nc3cc(C(=O)N4CCC[C@@H](N)C4)cc4c3n2CCO4)cc2ccc(OC)cc21 [Compound 107, (R)-(3-aminopiperidin-1-yl)(2-(6-methoxy-1-(2-methoxyethyl)-1H-indol-2-yl)-3,4-dihydro-5-oxa-1,2a-diazaacenaphthylen-7-yl)methanone]",6.00 to 7.00
2,"N[C@@H]1CCCN(C(=O)c2cc3c4c(c2)nc(-c2cc5ccccc5n2Cc2cnccn2)n4CCO3)C1 [Compound 111, (R)-(3-aminopiperidin-1-yl)(2-(1-(pyrazin-2-ylmethyl)-1H-indol-2-yl)-3,4-dihydro-5-oxa-1,2a-diazaacenaphthylen-7-yl)methanone]",6.00 to 7.00
3,"N[C@@H]1CCCN(C(=O)c2cc3c4c(c2)nc(-c2cc5ccccc5n2Cc2ncccn2)n4CCO3)C1 [Compound 113, (R)-(3-aminopiperidin-1-yl)(2-(1-(pyrimidin-2-ylmethyl)-1H-indol-2-yl)-3,4-dihydro-5-oxa-1,2a-diazaacenaphthylen-7-yl)methanone]",> 7.00
4,"N[C@@H]1CCCN(C(=O)c2cc3c4c(c2)nc(-c2cc5ccc(F)cc5n2CC2CC2)n4CCO3)C1 [Compound 114, (R)-(3-aminopiperidin-1-yl)(2-(1-(cyclopropylmethyl)-6-fluoro-1H-indol-2-yl)-3,4-dihydro-5-oxa-1,2a-diazaacenaphthylen-7-yl)methanone]",> 7.00
5,"N[C@@H]1CCCN(C(=O)c2cc3c4c(c2)nc(-c2cc5ccc(F)cc5n2Cc2ncccc2F)n4CCO3)C1 [Compound 121, (R)-(3-aminopiperidin-1-yl)(2-(6-fluoro-1-((3-fluoropyridin-2-yl)methyl)-1H-indol-2-yl)-3,4-dihydro-5-oxa-1,2a-diazaacenaphthylen-7-yl)methanone]",< 6.00
6,"COCCn1c(-c2nc3cc(C(=O)N4CCC[C@@H](N)C4)cc4c3n2CCO4)cc2cccc(Cl)c21 [Compound 122, (R)-(3-aminopiperidin-1-yl)(2-(7-chloro-1-(2-methoxyethyl)-1H-indol-2-yl)-3,4-dihydro-5-oxa-1,2a-diazaacenaphthylen-7-yl)methanone]",6.00 to 7.00
7,"N[C@@H]1CCCN(C(=O)c2cc3c4c(c2)nc(-c2cc5ccccc5n2Cc2ccc(CO)cc2)n4CCO3)C1 [Compound 123, (R)-(3-aminopiperidin-1-yl)(2-(1-(4-(hydroxymethyl)benzyl)-1H-indol-2-yl)-3,4-dihydro-5-oxa-1,2a-diazaacenaphthylen-7-yl)methanone trifluoroacetic acid salt]",6.00 to 7.00
8,"N[C@@H]1CCCN(C(=O)c2cc3c4c(c2)nc(-c2cc5ccccc5n2CC2CCC2)n4CCO3)C1 [Compound 127, (R)-(3-aminopiperidin-1-yl)(2-(1-(cyclobutylmethyl)-1H-indol-2-yl)-3,4-dihydro-5-oxa-1,2a-diazaacenaphthylen-7-yl)methanone]",6.00 to 7.00
9,"COc1ccc(Cn2c(-c3nc4cc(C(=O)N5CCC[C@@H](N)C5)cc5c4n3CCO5)cc3cc(F)ccc32)cc1 [Compound 132, (R)-(3-aminopiperidin-1-yl)(2-(5-fluoro-1-(4-methoxybenzyl)-1H-indol-2-yl)-3,4-dihydro-5-oxa-1,2a-diazaacenaphthylen-7-yl)methanone]",< 6.00
10,"N[C@@H]1CCCN(C(=O)c2cc3c4c(c2)nc(-c2cc5ccc(F)cc5n2Cc2ccc(F)cc2)n4CCO3)C1 [Compound 135, (R)-(3-aminopiperidin-1-yl)(2-(6-fluoro-1-(4-fluorobenzyl)-1H-indol-2-yl)-3,4-dihydro-5-oxa-1,2a-diazaacenaphthylen-7-yl)methanone]",> 7.00
11,"COc1ccc(Cn2c(-c3nc4cc(C(=O)N5CCC[C@@H](N)C5)cc5c4n3CCO5)cc3ccc(F)cc32)cc1 [Compound 136, (R)-(3-aminopiperidin-1-yl)(2-(6-fluoro-1-(4-methoxybenzyl)-1H-indol-2-yl)-3,4-dihydro-5-oxa-1,2a-diazaacenaphthylen-7-yl)methanone]",< 6.00

# Second part, the molecule after the results:
row,pIC50,SMILES
1,6.00 to 7.00,"COCCn1c(-c2nc3cc(C(=O)N4CCC[C@@H](N)C4)cc4c3n2CCO4)cc2ccccc21 [Compound 106, (R)-(3-aminopiperidin-1-yl)(2-(1-(2-methoxyethyl)-1H-indol-2-yl)-3,4-dihydro-5-oxa-1,2a-diazaacenaphthylen-7-yl)methanone]"
2,6.00 to 7.00,"COc1ccc2cc(-c3nc4cc(C(=O)N5CCC[C@@H](N)C5)cc5c4n3CCO5)n(CC3CC3)c2c1 [Compound 109, (R)-(3-aminopiperidin-1-yl)(2-(1-(cyclopropylmethyl)-6-methoxy-1H-indol-2-yl)-3,4-dihydro-5-oxa-1,2a-diazaacenaphthylen-7-yl)methanone]"
3,> 7.00,"N[C@@H]1CCCN(C(=O)c2cc3c4c(c2)nc(-c2cc5ccccc5n2Cc2ccncc2F)n4CCO3)C1 [Compound 110, (R)-(3-aminopiperidin-1-yl)(2-(1-((3-fluoropyridin-4-yl)methyl)-1H-indol-2-yl)-3,4-dihydro-5-oxa-1,2a-diazaacenaphthylen-7-yl)methanone]"
4,> 7.00,"N[C@@H]1CCCN(C(=O)c2cc3c4c(c2)nc(-c2cc5ccccc5n2Cc2ncccc2F)n4CCO3)C1 [Compound 112, (R)-(3-aminopiperidin-1-yl)(2-(1-((3-fluoropyridin-2-yl)methyl)-1H-indol-2-yl)-3,4-dihydro-5-oxa-1,2a-diazaacenaphthylen-7-yl)methanone]"
5,6.00 to 7.00,"CC(C)Cn1c(-c2nc3cc(C(=O)N4CCC[C@@H](N)C4)cc4c3n2CCO4)cc2ccccc21 [Compound 117, (R)-(3-aminopiperidin-1-yl)(2-(1-isobutyl-1H-indol-2-yl)-3,4-dihydro-5-oxa-1,2a-diazaacenaphthylen-7-yl)methanone]"
6,6.00 to 7.00,"COc1ccc2cc(-c3nc4cc(C(=O)N5CCC[C@@H](N)C5)cc5c4n3CCO5)n(Cc3ncccc3F)c2c1 [Compound 119, (R)-(3-aminopiperidin-1-yl)(2-(1-((3-fluoropyridin-2-yl)methyl)-6-methoxy-1H-indol-2-yl)-3,4-dihydro-5-oxa-1,2a-diazaacenaphthylen-7-yl)methanone]"
7,6.00 to 7.00,"N[C@@H]1CCCN(C(=O)c2cc3c4c(c2)nc(-c2cc5cccc(Cl)c5n2Cc2ncccc2F)n4CCO3)C1 [Compound 120, (R)-(3-aminopiperidin-1-yl)(2-(7-chloro-1-((3-fluoropyridin-2-yl)methyl)-1H-indol-2-yl)-3,4-dihydro-5-oxa-1,2a-diazaacenaphthylen-7-yl)methanone]"
8,> 7.00,"COc1ccc(Cn2c(-c3nc4cc(C(=O)N5CCC[C@@H](N)C5)cc5c4n3CCO5)cc3cccc(Cl)c32)cc1 [Compound 125, (R)-(3-aminopiperidin-1-yl)(2-(7-chloro-1-(4-methoxybenzyl)-1H-indol-2-yl)-3,4-dihydro-5-oxa-1,2a-diazaacenaphthylen-7-yl)methanone]"
9,< 6.00,"N[C@@H]1CCCN(C(=O)c2cc3c4c(c2)nc(-c2cc5ccccc5n2CC2CCOCC2)n4CCO3)C1 [Compound 126, (R)-(3-aminopiperidin-1-yl)(2-(1-((tetrahydro-2H-pyran-4-yl)methyl)-1H-indol-2-yl)-3,4-dihydro-5-oxa-1,2a-diazaacenaphthylen-7-yl)methanone]"
10,< 6.00,"N[C@@H]1CCCN(C(=O)c2cc3c4c(c2)nc(-c2cc5ccccc5n2CC(F)F)n4CCO3)C1 [Compound 133, (R)-(3-aminopiperidin-1-yl)(2-(1-(2,2-difluoroethyl)-1H-indol-2-yl)-3,4-dihydro-5-oxa-1,2a-diazaacenaphthylen-7-yl)methanone]"
11,6.00 to 7.00,"COCCn1c(-c2nc3cc(C(=O)N4CCC[C@@H](N)C4)cc4c3n2CCO4)cc2cc(F)ccc21 [Compound 134, (R)-(3-aminopiperidin-1-yl)(2-(5-fluoro-1-(2-methoxyethyl)-1H-indol-2-yl)-3,4-dihydro-5-oxa-1,2a-diazaacenaphthylen-7-yl)methanone]"
